≈ marks a conversion by molar mass, not a printed value.
Test: in vitro
Set-up: resazurin reduction viability assay, fluorescence, cytotoxicity on murine macrophages
Settings: mouse, raw macrophages; read-out: CC50 (µg/mL) Raw264.7
Description: The cytotoxicity of the new synthesized β-lactone analogs against eukaryotic cells was measured based on the reduction of resazurin as a value of cellular viability by metabolic activity, as previously described.[45,54,55] Murine (Raw264.7) macrophages (American Type Culture Collection TIB-71) were incubated with two-fold dilution of each compound for 24 h at 37 °C and 5% CO2. Then, 20 μL of a 0.025% (w/v) resazurin solution was added to each well, and fluorescence was measured following a 4 h incubation as described above. The compound concentration leading to 50% macrophage cell death was defined as the CC50.[28,29,56] All experiments were performed as three independent biological replicates. See ESI ^† for detailed protocol. 3.5. Cell toxicity of beta-lactone derivatives

SMILES | CC50 at 24 h [µg/mL]
CCCCCCCCC1(F)C(=O)OC1CCC (mixture of isomers) [VM043, 3-Fluoro-3-octyl-4-propyloxetan-2-one] | > 125
CCCCCCCC/C=C\CCCCCC[C@@H]1C(=O)O[C@H]1CC (racemic) [VM017, (±)-trans (Z)-4-Ethyl-3-(hexadec-7-en-1-yl)oxetan-2-one] | > 125
CCCCCCCC/C=C\CCCCCC[C@@H]1C(=O)O[C@@H]1CC (racemic) [VM018, (±)-cis (Z)-4-Ethyl-3-(hexadec-7-en-1-yl)oxetan-2-one] | > 125
CCCCCC[C@@H]1C(=O)O[C@H]1CCC (racemic) [VM019, (±)-trans 3-Hexyl-4-propyloxetan-2-one] | > 125
CCCCCCCC/C=C\CCCCCC[C@@H]1C(=O)O[C@H]1CCCCCCCCC (racemic) [VM021, (±)-trans (Z)-3-(Hexadec-7-en-1-yl)-4-nonyloxetan-2-one] | > 125
CCCCCCCC/C=C\CCCCCC[C@@H]1C(=O)O[C@H]1CCCCCC (racemic) [VM022, (±)-trans (Z)-3-(Hexadec-7-en-1-yl)-4-hexyloxetan-2-one] | > 125
CCCCCCCC/C=C\CCCCCC[C@@H]1C(=O)O[C@@H]1CCCCCCCCC (racemic) [VM023, (±)-cis (Z)-3-(Hexadec-7-en-1-yl)-4-nonyloxetan-2-one] | > 125
CCCCCCCC/C=C\CCCCCC[C@@H]1C(=O)O[C@@H]1CCCCCC (racemic) [VM024, (±)-cis (Z)-3-(Hexadec-7-en-1-yl)-4-hexyloxetan-2-one] | > 125
CCCCCCCCCC[C@@H]1C(=O)O[C@H]1CCC (racemic) [VM026, (±)-trans 3-Decyl-4-propyloxetan-2-one] | > 125
CCCCCCCCCC[C@@H]1C(=O)O[C@@H]1CCC (racemic) [VM027, (±)-cis 3-Decyl-4-propyloxetan-2-one] | > 125
CCCCCCCC/C=C\CCCCCCCC[C@@H]1C(=O)O[C@H]1CCC (racemic) [VM029, (±)-trans (Z)-3-(Octadec-9-en-1-yl)-4-propyloxetan-2-one] | > 125
CCCCCCCC/C=C\CCCCCCCC[C@@H]1C(=O)O[C@@H]1CCC (racemic) [VM030, (±)-cis (Z)-3-(Octadec-9-en-1-yl)-4-propyloxetan-2-one] | > 125
CCCCCCCC/C=C\CCCCCCC[C@@H]1OC(=O)[C@H]1CCC (racemic) [VM036, (±)-trans 4-((Z)-Heptadec-8-en-1-yl)-3-propyloxetan-2-one] | > 125
CCCCCCCC/C=C\CCCCCCC[C@H]1OC(=O)[C@H]1CCC (racemic) [VM037, (±)-cis 4-((Z)-Heptadec-8-en-1-yl)-3-propyloxetan-2-one] | > 125
CCCCCCCC[C@@H]1C(=O)O[C@H]1CCC (racemic) [VM038, (±)-trans 3-Octyl-4-propyloxetan-2-one] | > 125
CCCCCCCC[C@@H]1C(=O)O[C@@H]1CCC (racemic) [VM039, (±)-cis 3-Octyl-4-propyloxetan-2-one] | 119 ± 4 (≈ 526 µM)
CCCCCCCCCCCC[C@@H]1C(=O)O[C@H]1CCC (racemic) [VM040, (±)-trans 3-Dodecyl-4-propyloxetan-2-one] | > 125
CCCCCCCCCCCC[C@@H]1C(=O)O[C@@H]1CCC (racemic) [VM041, (±)-cis 3-Dodecyl-4-propyloxetan-2-one] | > 125
C#CCCC[C@@H]1C(=O)O[C@H]1CCC (racemic) [VM050p, (±)-trans 3-(Pent-4-yn-1-yl)-4-propyloxetan-2-one] | 44.1 ± 2.4 (≈ 245 µM)

SMILES | CC50 at 24 h [µg/mL]
C#CCCCCCCC[C@@H]1C(=O)O[C@H]1CCC (racemic) [VM052p, (±)-trans 3-(Non-8-yn-1-yl)-4-propyloxetan-2-one] | > 125
C#CCCCCCC[C@@H]1C(=O)O[C@H]1CCC (racemic) [VM053p, (±)-trans 3-(Oct-7-yn-1-yl)-4-propyloxetan-2-one] | > 125
CCC[C@@H]1OC(=O)[C@H]1CCCCCCCCN=[N+]=[N-] (racemic) [VM055p, (±)-trans 3-(8-Azidooctyl)-4-propyloxetan-2-one] | > 125
CCCCCCCC[C@@H]1C(=O)N[C@H]1CCC (racemic) [VM057, (±)-trans 3-Octyl-4-propylazetidin-2-one] | 52.7 ± 1.1 (≈ 234 µM)
CCCCCCCCCCC1C(=O)OC1CCC (stereo not shown) [VM025, 3-Decyl-4-propyloxetan-2-one] | > 125
CCCCCCCC/C=C\CCCCCCCCC1C(=O)OC1CCC (stereo not shown) [VM028, (Z)-3-(Octadec-9-en-1-yl)-4-propyloxetan-2-one] | > 125
C#CCCC1OC(=O)C1CCCCCCCC/C=C\CCCCCCCC (stereo not shown) [VM035p, (Z)-4-(But-3-yn-1-yl)-3-(octadec-9-en-1-yl)oxetan-2-one] | > 125
CCCCCCCC/C=C\CCCCCCC1(F)C(=O)OC1CCC (stereo not shown) [VM042, (Z)-3-Fluoro-3-(hexadec-7-en-1-yl)-4-propyloxetan-2-one] | > 125
CCCCCCCCCCCCC1(F)C(=O)OC1CCC (stereo not shown) [VM044, 3-Dodecyl-3-fluoro-4-propyloxetan-2-one] | > 125
CCCCCCCCOCCCCCCCCC1C(=O)OC1CCC (stereo not shown) [VM045, 3-(8-(Octyloxy)octyl)-4-propyloxetan-2-one] | > 125
CCCCCCCCOCCCCCCCCC1(F)C(=O)OC1CCC (stereo not shown) [VM046, 3-Fluoro-3-(8-(octyloxy)octyl)-4-propyloxetan-2-one] | > 125
CCCCCCNC(=O)CCCCCCCC1C(=O)OC1CCC (stereo not shown) [VM047, N-Hexyl-8-(2-oxo-4-propyloxetan-3-yl)octanamide] | > 125
CCCCCCCC(=O)NCCCCCCC1C(=O)OC1CCC (stereo not shown) [VM048, N-(6-(2-Oxo-4-propyloxetan-3-yl)hexyl)octanamide] | > 125
C#CCCCC1C(=O)OC1CCC (stereo not shown) [VM049p, 3-(Pent-4-yn-1-yl)-4-propyloxetan-2-one] | 68.1 ± 3.1 (≈ 378 µM)
C#CCCCCCCCCCC1C(=O)OC1CCC (stereo not shown) [VM051p, 4-Propyl-3-(undec-10-yn-1-yl)oxetan-2-one] | > 125
C#CCCC1OC(=O)C1CCCCCCCCCCCC (stereo not shown) [VM054p, 4-(But-3-yn-1-yl)-3-dodecyloxetan-2-one] | > 125
CCCCCCCCCCCCC1C(=O)NC1CCC (stereo not shown) [VM056, 3-Dodecyl-4-propylazetidin-2-one] | 30.6 ± 1.1 (≈ 109 µM)
CCCCCCCCC1C(=O)NC1CCC (stereo not shown) [VM058, 3-Octyl-4-propylazetidin-2-one] | 40.1 ± 0.6 (≈ 178 µM)

Reference: publication PMC12101465, “Synthesis and anti-mycobacterial activity of novel medium-chain β-lactone derivatives: a multi-target strategy to combat Mycobacterium abscessus” (RSC Medicinal Chemistry, 2025)
